≈ marks a conversion by molar mass, not a printed value.
Experiments:
PBMCs = assay: MTT cytotoxicity assay in PBMCs; format: cell-based, human
Protocol: PBMCs were isolated from blood samples using the Ficoll-Hypaque technique. Initially, 10–20 mL of blood was collected in a heparin tube at a ratio of 1:500 from a minimum of three healthy volunteers. Subsequently, the blood samples were diluted with Phosphate buffer saline (PBS), pH 7.4, at a ratio of 1:1 to reduce viscosity. Histopaque-1077 (Sigma-Aldrich, MA, USA) was then underlaid the diluted sample and centrifuged at 400×g for 30 min. The resulting PBMCs were collected, washed with PBS, pH 7.4, and prepared for further experiments.
(§1) MTT (3-(4,5-dimethylthiazol-2-yl)-2,5-diphenyltetrazolium bromide) assay was used to investigate the cytotoxicity of the test samples. KG-1a (1.5 × 10^4 cells/well), K562 (1.0 × 10^4 cells/well), PBMCs (1.0 × 10^5 cells/well), A549 (5.0 × 10^3 cells/well), MCF-7 (5.0 × 10^3 cells/well), and HeLa (5.0 × 10^3 cells/well) were seeded into a 96-well plate and incubated overnight at 37 °C with 5% CO2. […] After that, 5 mg/mL of MTT dye solution (Sigma-Aldrich, MA, USA) was added and incubated for 4 h. The produced formazan crystals were dissolved in 200 µL of DMSO (Sigma-Aldrich, MA, USA); then, the optical density (OD) was measured using an ELISA plate reader (Metertech, Taipei, Taiwan) at 578 nm with a reference wavelength of 630 nm. The percentage of surviving cells was calculated from the absorbance values of the test and control wells using the following Equation. 1 [drawing 1]
(§2) where ODsample is a mean absorbance in test well and ODvehicle control is a mean absorbance in VC well. The average percentage of surviving cells at each concentration obtained from triplicate experiments was plotted as a dose-response curve. Inhibitory concentration values at 50% growth (IC50 value) were defined as the lowest concentration of the test sample that inhibited cell growth by 50% compared to the untreated control.
(§3) To calculate IC50 values, a dose-response curve was fitted using non-linear regression analysis, as described in the GraphPad Prism guidelines (https://www.graphpad.com/support/faq/how-to-determine-an-icsub50sub/). The IC50 value was obtained by determining the point at which the curve intersected 50% growth inhibition. Non-linear regression graphs of the dose-response curve for each compound are provided in the supplementary data file (Figs. S1–S8).

[1] = system: CD34 protein expression in KG-1a cells; assay: CD34 protein expression in KG-1a cells by Western blotting; format: cell-based, human; settings: IC20 concentrations, 48 h, normalized to GAPDH
Protocol: (§4) KG-1a cells (1.5 × 10^5 cells/mL) were treated with compounds or extracts at different incubation times. Then, the cells were harvested and the whole proteins were extracted using a RIPA buffer (25 mM Tris-base, pH 7.6, 0.1% SDS, 1% Triton X-100, 150 mM NaCl, and 1 mM EDTA). The protein concentration was measured using the Folin-Lowry or Bradford assay. The whole protein lysates (30 µg/lane) were then separated through 7.5% SDS-PAGE under reducing conditions and then transferred to PVDF membranes. The membranes were blocked in 5% skim milk in PBS, pH 7.4 at RT for 2 h, then, target proteins were probed with specific primary antibodies (anti-WT1, anti-CD34, anti-GAPDH, anti-cleaved caspase-3, anti-cleaved PARP, anti-phospho-Akt, anti-phospho-c-Jun, anti-phospho-SAPK/JNK, and anti-YAP/TAZ) indicated in Table S10 which diluted at a ratio of 1:1,000 in PBS, pH 7.4 at RT for 2 h. After incubation, the membranes were rinsed 6 times with 0.1% Tween-20 (Sigma-Aldrich, MA, USA) in PBS, pH 7.4 (PBS-T), each time for 5 min. The reaction was followed by HRP-conjugated secondary antibody at 1:20,000 dilution in PBS, pH 7.4 at RT for 2 h, then, the membranes were rinsed 6 times for 5 min each with PBS-T. The proteins were shown using Immobilon Forte Western HRP substrate (Millipore, MA, USA). Finally, the protein band signal was quantified by using a scan densitometer (Bio-Rad Laboratories, CA, USA).

KG-1a cells [2] = assay: MTT cytotoxicity assay in KG-1a cells; format: cell-based, human; settings: for Selectivity index (SI): IC50 for normal cells (PBMCs) / IC50 for cancer cells (KG-1a)
Protocol: as §1, §2, §3
where IC50 N is IC50 for normal cells and IC50 C is IC50 for cancer cells which were treated with the same compounds in both cells.

KG-1a cells [3] = assay: Trypan blue exclusion test, cell numbers of KG-1a cells; format: cell-based, human; settings: IC20 concentrations, 48 h
Protocol: This test was used to confirm the cytotoxicity of the test samples. The cancer cells after exposure to crude ethanolic extracts and active compounds for 48 h were harvested and washed with ice-cold PBS, pH 7.4 for 3 times. Then, the cells were resuspended with PBS, pH 7.4. The cell suspensions were diluted with PBS, pH 7.4 at the appropriate dilution before being mixed with 0.2% trypan blue solution at 1:2 dilution for cell count on a hemocytometer. From this test, the viable cells and the dead cells could also be obviously detected.
This test was used to confirm the cytotoxicity of crude ethanolic extracts and active compounds. KG-1a cells after exposure to crude ethanolic extracts and active compounds for 48 h were harvested and washed with ice-cold PBS, pH 7.4 for 3 times. Then, the cells were resuspended with PBS, pH 7.4. The cell suspensions were diluted with PBS, pH 7.4 at the appropriate dilution before being mixed with 0.2% trypan blue solution at 1:2 dilution for cell count on a hemocytometer. From this test, the viable cells and the dead cells could also be obviously detected.

[4] = system: WT1 protein expression in KG-1a cells; assay: WT1 protein expression in KG-1a cells by Western blotting; format: cell-based, human; settings: IC20 concentrations, 48 h, normalized to GAPDH
Protocol: as §4

RAW264.7 cells = assay: Cytotoxicity (IC20, cell viability) in RAW264.7 cells; format: cell-based; settings: incubation for 48 h
Protocol: MTT (3-(4,5-dimethylthiazol-2-yl)-2,5-diphenyltetrazolium bromide) assay was used to investigate the cytotoxicity of the test samples. […] After that, 5 mg/mL of MTT dye solution (Sigma-Aldrich, MA, USA) was added and incubated for 4 h. The produced formazan crystals were dissolved in 200 μL of DMSO (Sigma-Aldrich, MA, USA); then, the optical density (OD) was measured using an ELISA plate reader ([…], Taiwan) at 578 nm with a reference wavelength of 630 nm. The percentage of surviving cells was calculated from the absorbance values of the test and control wells using the following Equation. 1 [drawing 1] […] Afterward, supernatants were collected, and the levels of TNF-α and NO were measured using the Mouse TNF alpha Uncoated ELISA Kit (InvitrogenTM, ThermoFisher Scientific, MA, USA) and the Total Nitric Oxide Assay Kit (InvitrogenTM, ThermoFisher Scientific, MA, USA), respectively, according to the manufacturer's instructions.

[5] = system: NO production in LPS-activated RAW264.7 cells; assay: NO production in LPS-activated RAW264.7 cells; format: cell-based, mouse; settings: IC20 concentration, LPS-activated, 24 h
Protocol: For the measurement of tumor necrosis factor-alpha (TNF-α) and NO, RAW264.7 cells were pre-treated with plant extracts and active compounds at a non-cytotoxic dose (IC20) (Table S9) or 1 µg/mL of dexamethasone (positive control) in a 24-well plate for 2 h. Subsequently, 1 µg/mL of lipopolysaccharide (LPS) (Cat No. 00497693, Invitrogen™, MA, USA) was added to each well, and the cells were incubated for an additional 24 h to allow sufficient time for the compounds to exert measurable anti-inflammatory effects while maintaining cell viability. Afterward, supernatants were collected, and the levels of TNF-α and NO were measured using the Mouse TNF alpha Uncoated ELISA Kit (Invitrogen™, ThermoFisher Scientific, MA, USA) and the Total Nitric Oxide Assay Kit (Invitrogen™, ThermoFisher Scientific, MA, USA), respectively, according to the manufacturer’s instructions.
The percentage of NO or cytokine inhibitions were calculated using the following equation: […]
where A is the level of cytokine or NO without treatment, and B is the level of cytokine or NO with treatment.

[6] = active compounds and drugs, MTT, 48 h

Compound: CCCCC[C@H](O)CC(=O)CCc1ccc(O)c(OC)c1 [Gingerol, gingerol]
- IC50 value R1 (PBMCs; Table S8, PBMCs, first replicate): > 100 µg/mL
- IC50 value Mean (PBMCs; Table S8, PBMCs, mean of R1-R3): > 100 µg/mL
- IC50 value R3 (PBMCs; Table S8, PBMCs, third replicate): > 100 µg/mL
- IC50 PBMCs (PBMCs; [6]): > 100 µg/mL
- IC20 PBMCs (inhibitory concentration at 20% growth) (PBMCs; incubation for 48 h): 76.94 ± 4.13 µg/mL (≈ 261 µM)
- decrease of CD34 protein level compared to VC [1]: 31.95 ± 5.70%
- Selectivity index (SI) (KG-1a cells [2]; 48 h): > 1.30
- Selectivity index (SI) (KG-1a cells [2]; 48 h, listed as gingerol): greater than 1
- IC50 value R1 (KG-1a cells [2]; Table S7, KG-1a, first replicate): 77.86 µg/mL (≈ 264 µM)
- IC50 value R3 (KG-1a cells [2]; Table S7, KG-1a, third replicate): 77.08 µg/mL (≈ 262 µM)
- IC50 KG-1a (KG-1a cells [2]; [6]): 76.77 ± 1.28 µg/mL (≈ 261 µM)
- IC20 KG-1a (inhibitory concentration at 20% growth) (KG-1a cells [2]; incubation for 48 h): 14.09 ± 3.87 µg/mL (≈ 47.9 µM)
- decrease of total cell number compared to VC (KG-1a cells [3]): 31.39 ± 8.69%
- normalized viable cell counts (KG-1a cells [3]): 979.50 ± 8.90 × 10^3 cells per 1 million total cells
- decrease of WT1 protein level compared to VC [4]: 43.98 ± 8.93%
- IC20 RAW264.7 (inhibitory concentration at 20% growth) (RAW264.7 cells): 16.73 ± 4.64 µg/mL (≈ 56.8 µM)
- effect on NO production compared to dexamethasone (positive control) [5]: had no effect
